Measurements: patent publication US8703106B2, “Chlorine dioxide treatment for biological tissue” (priority 2009, dated 2014)
Values joined by “and” are separate entries in the source; they are usually repeats but may differ in a detail not shown here. Identical values can stand only once.

Columns and labels:
[1] = Tooth whitening with multiple contiguous applications, Vita Classic Shade Guide (Example 7); design: species or system human; details: for ΔSVU, Average: average of five teeth; for ΔSVU: nominal 200 ppm (actual 155 ppm) NaCMC gel, pH 5.0, individual teeth A-E, baseline C4
Text: This study was designed to assess the efficacy on tooth whitening of two different regimens of multiple, contiguous applications of a 200 ppm chlorine dioxide gel. Five human extracted teeth (molars) were used in this study. Each tooth was sectioned twice: first at the tooth's cemento-enamel junction to remove the root portion of the tooth; then sectioned mesio-distally to separate the tooth into two, separate buccal and lingual halves. […] The sectioned teeth were then stained in concentrated black tea (cooled to room temperature after brewing) until each tooth accumulated enough stain to be visually graded as “C4” (hut no lighter than “A4”) per the Vita Classic Shade Vision Guide.
After staining, the cut sides of each tooth were sealed with an acrylic polymer (i.e. acrylic-based nail polish). The tooth was then “split” or functionally “divided” into a left and right sides (the tooth was not physically split). To create “dividing line,” a narrow channel was first created down the center of the tooth (running from the occlusal to the gingival or cervical portion of the tooth) using a narrow tungsten carbide or diamond tip dental bur, thereby creating an approximately 0.5 to 1.5-mm deep by 1 to 1.5-mm wide channel on either the buccal or lingual enamel surface of the tooth segment. The channel was etched carefully with a 34-40% phosphoric acid dental etching gel preparation (being careful to confine the gel only to the enamel within the prepared channel). The etching gel was then removed by water rinsing, the Stir face was dried, and a thin, narrow band of enamel-dentin adhesive was then applied carefully only to the enamel within the narrow channel. The material was allowed to dry in ambient air for 1 minute then carefully dried with a gentle stream of compressed air for an additional 10 seconds. The enamel-dentin adhesive was subsequently cured by exposure to a visible light dental curing unit using actinic blue light at an approximate peak wavelength of 470 nm for multiple, 20 second curing increments. In order to fill in the channel and gradually build a “wall” or harrier to separate the left and right half of the lingual surface of the tooth, a thin, narrow layer or band of composite resin dental restorative material was added in several steps and cured with the dental visible blue-light curing unit.
The wall that was built up on each tooth prevents whitening agent applied on the left side of the tooth to migrate into the whitening agent that was applied on the right side of the tooth, and visa versa. In this way, it is possible to compare two different treatment regimens on the same tooth, thereby minimizing the biological diversity among different teeth that may affect whitening efficacy.
Two treatment regimens were tested, both using a nominal 200 ppm chlorine dioxide gel comprising sodium carboxymethylcellulose (NaCMC). The actual concentration of chlorine dioxide was measured and found to be 155 ppm; pH of the composition was 5.0. The general treatment protocol is as follows. […] The 60 ml syringe was used to store the gel during the assay, and for dispensing gel into a 10 ml plastic syringe. The gel in the 10 ml syringe was then dispensed directly onto the tooth section enamel surfaces as follows. At time zero, about 1 to 1.5 ml gel was dispensed onto the enamel surface of each tooth segment attached to the glass microscope slide. The thickness of the resulting gel layer was about 1.5 to 3.0 mm in depth. After dispensing the gel onto the tooth segments, the glass slide was placed in a plastic zippered bag, containing small strips of wet paper towel within the bag to maintain 100% humidity in the bag. The paper towel strips were positioned to eliminate any contact of the plastic bag with the tooth and gel surfaces.
Upon conclusion of a contact epidose, the glass slide was removed from the plastic bag, and the gel was carefully removed with an extra soft bristle toothbrush and a gentle stream of running tap water. […]

Pseudomonas in wounds = experiment: Pig infected wound model, delivery methods (Example 4); assay type: in vivo; details: Day 2, 400 ppm chlorine dioxide over two hours, versus moist controls
Text: (§1) The test animal was a pig (n=1). Pigs are commonly used as models for wound healing in part because pig skin shares many characteristics with human skin. The porcine model is considered to be an excellent tool for the evaluation of candidate agents intended for use in human wounds.
(§2) On Day 0, the pig was anesthetized and sixteen […] full-thickness wounds (eight per side) were created using a custom designed 2-cm trephine. Each wound was 2-cm in diameter. An epinephrine solution (1:10,000 dilution) was applied to the wounds on gauze sponges until hemostasis was complete (approximately 10 minutes). Each wound was then infected with a bacterial inoculum.
(§3) Three different bacteria, Pseudomonas aeruginosa, Fusobacterium sp., and coagulase-negative Staphylococci (CNS), were cultured and used to prepare inoculums for the wounds. On the morning of surgery, the bacterial cultures were washed with sterile saline and resuspended in saline to a final density of approximately 10^7 CFU/mL. This bacterial suspension was used to inoculate each wound.
(§4) Wounds were dressed with sterile Telfa gauze, and the infections allowed to mature to establish a bacterial biofilm condition. Telfa dressings were moistened with saline: the excess saline was removed by squeezing the Telfa dressings. The dressing was then secured in place with Transpore tape (3M, St. Paul, Minn.), As a secondary dressing, a blue absorbent pad was used to cover all of the wounds. The absorbent layer of the blue pad was placed against the skin for the first few days. If wounds looked too dry, the blue pad was changed with the occlusive side against the skin. A layer of a layer of elastic bandage was wrapped over the blue pad to prevent movement of the dressings underneath. All wound dressing were changed on Day 1.
(§5) On Day 2, wounds were treated with a chlorine dioxide composition using different delivery methods. In brief, wounds A2-A4 were treated with continuous irrigation. Treatment for wounds B2-B4 and C2-C4 was multiple, substantially contiguous episodes of contact with a substantially non-cytotoxic chlorine dioxide gel composition. Wounds D2-D4 were treated with intermittent irrigation using a manual irrigation device. A1, B1 and D1 were controls and were not treated with chlorine dioxide. C1 was manually treated with a chlorine dioxide solution.
(§6) Wounds A2-A4: Each wound was individually covered with an irrigation device, each having an inlet, port to supply a chlorine dioxide solution and an outlet port for egress of the chlorine, dioxide solution. […]
(§7) The pump was activated to achieve an initial flow rate of approximately 80-82 ml mm through each of the three irrigation chambers. Chlorine dioxide concentrations were measured at the outlets using a UV spectrophotometer. […]

[2] = tested on: coagulase-negative Staphylococci in wounds; experiment: as above; assay type: in vivo
Text: as §1, §2, §3, §4, §5, §6, §7

[3] = 30 minutes total exposure, Left: 2 × 15 minutes
[4] = 30 minutes total exposure, Right: 4 × 7.5 minutes
[5] = 60 minutes total exposure, Left: 4 × 15 minutes
[6] = 60 minutes total exposure, Right: 8 × 7.5 minutes

SMILES: [O][Cl+][O-] [ClO2, chlorine dioxide]
- ΔSVU, Average [1, 3]: 11.4 SVU
- ΔSVU [1, 3]: 12 SVU (3×) and 10 SVU and 11 SVU
- ΔSVU, Average [1, 4]: 12.6 SVU
- ΔSVU [1, 4]: 15 SVU and 12 SVU (4×)
- ΔSVU, Average [1, 5]: 11.8 SVU
- ΔSVU [1, 5]: 12 SVU (4×) and 11 SVU
- ΔSVU, Average [1, 6]: 13.6 SVU
- ΔSVU [1, 6]: 15 SVU (2×) and 14 SVU and 12 SVU (2×)
- improvement of tooth whitening, four applications compared to two applications ([1]; nominal dosage 6000 ppm-min (30 minutes × 200 ppm)): about 10%
- improvement of tooth whitening, eight applications over four applications ([1]; nominal dosage 12,000 ppm-min): about 15%
- reduction of Pseudomonas (Pseudomonas in wounds): ≥ 3 logs
- levels of Staphylococcus aureus ([2]; pig wounds, improved irrigation methods and gel formulation): moderately lowered
- reduction of coagulase-negative Staph ([2]; pig, Day 2, 400 ppm chlorine dioxide over two hours, versus moist controls): 1-2 logs
